Measured values published in patent publication US20100249163A1, “RENIN INHIBITORS” (priority 2007, published 2010).

Columns and labels:
renin in human plasma = biological target: T1, renin in human plasma (Homo sapiens, UniProt P00797); assay: Inhibition of renin in human plasma; type: biochemical; details: human plasma assay
T1 construct: host or cells: recombinant enzyme added to human plasma from 10 normal donors
T1 sequence (P00797 67-406): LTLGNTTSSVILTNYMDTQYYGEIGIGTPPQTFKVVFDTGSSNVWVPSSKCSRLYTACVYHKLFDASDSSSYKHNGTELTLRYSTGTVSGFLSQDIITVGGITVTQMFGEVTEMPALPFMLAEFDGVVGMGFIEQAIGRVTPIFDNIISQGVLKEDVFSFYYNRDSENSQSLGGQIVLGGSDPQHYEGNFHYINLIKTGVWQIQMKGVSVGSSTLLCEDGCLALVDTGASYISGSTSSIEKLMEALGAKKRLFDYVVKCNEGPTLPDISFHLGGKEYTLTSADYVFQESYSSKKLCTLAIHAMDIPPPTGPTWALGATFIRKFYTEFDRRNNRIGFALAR

human recombinant renin = biological target: T2, human recombinant renin (Homo sapiens, UniProt P00797); assay: Renin IC50, QFRET (quenched fluorescence resonance energy transfer) assay; type: biochemical; details: FRET (quenched fluorescence resonance energy transfer) assay
T2 sequence (P00797 67-406): T1 sequence (P00797 67-406)

Row | IC50 (renin in human plasma) | IC50 (human recombinant renin) | Compound
1 | 136 nM | 76 nM | COCCCc1cc(CN(C(=O)[C@H]2CNCC[C@]2(O)c2ccn(C)c(=O)c2)C2CC2)cc(OCCOC)c1 (racemic) [Example 23, rac-(3S,4R)—N-cyclopropyl-4-hydroxy-N-[3-(2-methoxyethoxy)-5-(3-methoxypropyl)benzyl]-4-(1-methyl-2-oxo-1,2-dihydropyridin-4-yl)piperidine-3-carboxamide]
2 | 21 nM | 3.9 nM | COCCCc1cc(CN(C(=O)[C@H]2CNCC[C@]2(OCc2cnn[nH]2)c2ccc(F)c(F)c2)C2CC2)cc(OCCOC)c1 [Example 51, (3S,4R)—N-cyclopropyl-4-(3,4-difluorophenyl)-N-[3-(2-methoxyethoxy)-5-(3-methoxypropyl)benzyl]-4-(1H-1,2,3-triazol-5-ylmethoxy)piperidine-3-carboxamide]
3 | 4.7 nM | 1 nM | COCCCc1cc(CN(C(=O)[C@H]2CNCC[C@]2(OC)c2ccc(F)c(F)c2)C2CC2)cc(OCCOC)c1 (racemic) [Example 35, Rac-(3S,4R)—N-cyclopropyl-4-(3,4-difluorophenyl)-4-methoxy-N-[3-(2-methoxyethoxy)-5-(3-methoxypropyl)benzyl]piperidine-3-carboxamide]
4 | 280 nM | 140 nM | COCCCc1cc(CN(C(=O)[C@H]2CNCC[C@]2(O)c2cccnc2)C2CC2)cc(OCCOC)c1 (racemic) [Example 2, rac-(3S,4R)—N-cyclopropyl-4-hydroxy-N-[3-(2-methoxyethoxy)-5-(3-methoxypropyl)benzyl]-4-pyridin-3-ylpiperidine-3-carboxamide]
5 | 4.8 nM | 2.4 nM | COCCc1ccc(Cl)c(CN(C(=O)[C@H]2CNCC[C@]2(OCC(O)CO)c2ccc(F)c(F)c2)C2CC2)c1 (stereo partly drawn) [Example 54, (3S,4R)—N-[2-chloro-5-(2-methoxyethyl)benzyl]-N-cyclopropyl-4-(3,4-difluorophenyl)-4-(2,3-dihydroxypropoxy)piperidine-3-carboxamide]
6 | 61 nM | 1.1 nM | COCCCc1cc(CN(C(=O)[C@H]2CNCC[C@]2(OCc2ccc(F)cc2)c2ccc(F)c(F)c2)C2CC2)cc(OCCOC)c1 [Example 48, (3S,4R)—N-cyclopropyl-4-(3,4-difluorophenyl)-4-[(4-fluorobenzyl)oxy]-N-[3-(2-methoxyethoxy)-5-(3-methoxypropyl)benzyl]piperidine-3-carboxamide]
7 | 11 nM | 2.7 nM | COCCCc1cc(CN(C(=O)[C@H]2CNCC[C@]2(OCCOC)c2ccc(F)c(F)c2)C2CC2)cc(OCCOC)c1 [Example 49, (3S,4R)—N-cyclopropyl-4-(3,4-difluorophenyl)-4-(2-methoxyethoxy)-N-[3-(2-methoxyethoxy)-5-(3-methoxypropyl)benzyl]piperidine-3-carboxamide]
